Laboratory results from ChEMBL document CHEMBL1201862, “PubChem BioAssay data set” (2004).
Activity calls are given as the source filed them.

How the values were obtained:
[1] = molecular target: T1, Bifunctional protein GlmU (Mycobacterium tuberculosis, UniProt P9WMN3); test: Inhibitors of Mycobacterial Glucosamine-1-phosphate acetyl transferase (GlmU). Secondary screen.; set-up: species or system Mycobacterium tuberculosis H37Rv
T1 sequence (P9WMN3 whole entry): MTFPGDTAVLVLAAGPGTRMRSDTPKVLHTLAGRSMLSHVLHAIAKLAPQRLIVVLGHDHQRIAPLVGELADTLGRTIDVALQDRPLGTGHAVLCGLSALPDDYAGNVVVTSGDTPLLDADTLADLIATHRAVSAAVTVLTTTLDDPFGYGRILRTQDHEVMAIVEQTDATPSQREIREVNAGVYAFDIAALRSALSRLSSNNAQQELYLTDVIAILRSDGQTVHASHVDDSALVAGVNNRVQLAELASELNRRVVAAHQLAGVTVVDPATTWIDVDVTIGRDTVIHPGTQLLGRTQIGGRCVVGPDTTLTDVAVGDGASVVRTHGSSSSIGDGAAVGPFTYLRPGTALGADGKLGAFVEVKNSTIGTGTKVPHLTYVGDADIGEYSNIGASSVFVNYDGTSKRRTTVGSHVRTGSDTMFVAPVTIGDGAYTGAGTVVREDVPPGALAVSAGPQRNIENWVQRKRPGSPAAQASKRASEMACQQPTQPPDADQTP

[2] = molecular target: T2, RNA-binding protein pos-1 (Caenorhabditis elegans, UniProt G5EF15); test: disruptors of C. elegans POS-1 RNA interaction – biochemical, fluorescence polarization, dose response (AID 1964);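 further: purified POS-1 fused to maltose binding protein made in E. coli; potency of compounds blocking POS-1 binding to fluorescent RNA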
T2 sequence (G5EF15 whole entry): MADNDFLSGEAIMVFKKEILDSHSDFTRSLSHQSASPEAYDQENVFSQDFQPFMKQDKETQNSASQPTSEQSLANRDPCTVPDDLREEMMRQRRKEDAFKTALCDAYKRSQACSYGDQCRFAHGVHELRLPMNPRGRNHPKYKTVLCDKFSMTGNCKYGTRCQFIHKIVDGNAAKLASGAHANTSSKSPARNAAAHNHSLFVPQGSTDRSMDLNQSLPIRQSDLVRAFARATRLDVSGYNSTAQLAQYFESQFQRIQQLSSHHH

[3] = molecular target: T3, Zinc finger protein mex-5 (Caenorhabditis elegans, UniProt Q9XUB2); test: potency of MEX-5 RNA-binding blockers – biochemical, C. elegans, fluorescence polarization, dose response (AID 1960)
T3 sequence (Q9XUB2 whole entry): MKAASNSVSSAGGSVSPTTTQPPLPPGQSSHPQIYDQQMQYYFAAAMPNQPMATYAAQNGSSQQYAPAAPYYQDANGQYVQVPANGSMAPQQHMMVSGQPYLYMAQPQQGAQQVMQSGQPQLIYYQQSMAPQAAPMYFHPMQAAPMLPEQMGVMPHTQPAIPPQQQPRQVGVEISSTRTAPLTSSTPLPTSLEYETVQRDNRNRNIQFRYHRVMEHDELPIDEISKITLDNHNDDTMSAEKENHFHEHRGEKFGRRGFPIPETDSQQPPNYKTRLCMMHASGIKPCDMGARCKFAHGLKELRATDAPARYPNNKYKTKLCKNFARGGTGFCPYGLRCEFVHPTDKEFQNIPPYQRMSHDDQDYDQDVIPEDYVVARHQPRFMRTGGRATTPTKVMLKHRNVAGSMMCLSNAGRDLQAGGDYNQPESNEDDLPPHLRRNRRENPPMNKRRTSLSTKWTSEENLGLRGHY

[4] = molecular target: T4, Microphthalmia-associated transcription factor (Homo sapiens, UniProt O75030); test: reducers of TRPM1 reporter luminescence, concentration series – cell-based, SK-MEL-5, cherry-picked, set 3, MITF inhibitor project, dose response (AID 493073); assay type: functional;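 further: SK-MEL-5 melanoma cells with luciferase driven by the MITF target TRPM1 promoter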
T4 sequence (O75030 whole entry): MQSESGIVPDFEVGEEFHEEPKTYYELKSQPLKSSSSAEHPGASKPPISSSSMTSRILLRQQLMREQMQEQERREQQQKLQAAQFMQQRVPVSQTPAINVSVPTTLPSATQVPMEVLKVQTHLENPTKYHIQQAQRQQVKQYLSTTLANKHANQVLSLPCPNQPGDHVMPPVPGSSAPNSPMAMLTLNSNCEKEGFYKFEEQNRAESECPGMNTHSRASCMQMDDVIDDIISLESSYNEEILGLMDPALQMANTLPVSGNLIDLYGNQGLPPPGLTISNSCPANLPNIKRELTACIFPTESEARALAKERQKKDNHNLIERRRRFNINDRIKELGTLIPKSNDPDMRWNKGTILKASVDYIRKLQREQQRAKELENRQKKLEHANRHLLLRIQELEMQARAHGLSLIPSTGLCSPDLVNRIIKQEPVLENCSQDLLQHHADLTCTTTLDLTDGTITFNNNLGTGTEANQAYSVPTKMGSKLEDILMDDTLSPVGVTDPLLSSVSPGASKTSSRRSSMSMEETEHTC

Caspase-8 = Caspase-8 (Homo sapiens, UniProt Q14790); test: inhibitors of purified CASP8 protease – biochemical, Z-IETD-R110 fluorescence, cherry-picked samples, selectivity assay for caspase-6 inhibitor project, dose response (AID 743294)
Nonstructural protein 1 = Nonstructural protein 1 (Influenza A virus, UniProt Q194T2); assay type: functional, Influenza A virus (A/California/07/2009(H1N1))
[5] = molecular target: T5, Polyadenylate-binding protein 1 (Homo sapiens, UniProt P11940); test: MLLE domain peptide-binding blockers, IC50 – biochemical, fluorescence polarization, FITC-PAM2 peptide, dose response (AID 602259); assay type: functional; conditions: read-out: IC50_Mean
Caspase-9 = molecular target: T6, Caspase-9 (Homo sapiens, UniProt P55211); test: inhibitors of purified CASP9 protease – biochemical, fluorescence, plate reader, cherry-picked samples, selectivity assay for caspase-6 inhibitor project, dose response (AID 743293)
T6 sequence (P55211 whole entry): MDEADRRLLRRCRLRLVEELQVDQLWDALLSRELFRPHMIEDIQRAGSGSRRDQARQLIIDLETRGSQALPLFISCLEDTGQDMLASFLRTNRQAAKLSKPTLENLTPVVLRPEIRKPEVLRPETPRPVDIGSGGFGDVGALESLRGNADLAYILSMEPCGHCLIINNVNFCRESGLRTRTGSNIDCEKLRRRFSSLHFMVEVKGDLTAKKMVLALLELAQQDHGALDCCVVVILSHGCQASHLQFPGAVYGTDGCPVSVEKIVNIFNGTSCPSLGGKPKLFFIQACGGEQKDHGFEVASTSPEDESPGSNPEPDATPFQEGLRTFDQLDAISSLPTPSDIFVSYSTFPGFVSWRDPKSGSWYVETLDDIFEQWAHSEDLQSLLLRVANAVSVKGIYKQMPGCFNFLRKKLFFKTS

[6] = molecular target: T5, Polyadenylate-binding protein 1; test: MLLE binding blockers, Cy5 peptide tracer – biochemical, fluorescence polarization, Cy5-PAM2 peptide, secondary, miRNA deadenylation inhibitor project, dose response (AID 602260); assay type: functional; conditions: read-out: IC50_Mean
Caspase-6 = molecular target: T7, Caspase-6 (Homo sapiens, UniProt P55212); test: inhibition of CASP6 peptide cleavage – biochemical, VEID-R110 fluorescence, cherry-pick, dose response (AID 720632)
T7 sequence (P55212 whole entry): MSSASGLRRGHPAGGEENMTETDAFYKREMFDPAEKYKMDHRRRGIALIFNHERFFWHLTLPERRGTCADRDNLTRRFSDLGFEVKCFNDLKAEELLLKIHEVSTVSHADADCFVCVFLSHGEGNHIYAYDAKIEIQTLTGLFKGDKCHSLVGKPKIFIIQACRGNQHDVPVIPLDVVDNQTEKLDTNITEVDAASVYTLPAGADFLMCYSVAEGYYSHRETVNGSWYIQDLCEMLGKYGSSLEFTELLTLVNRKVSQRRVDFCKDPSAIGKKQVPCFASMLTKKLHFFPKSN

[7] = molecular target: T8, Apoptotic protease-activating factor 1 (Homo sapiens, UniProt O14727); assay type: functional
T8 sequence (O14727 whole entry): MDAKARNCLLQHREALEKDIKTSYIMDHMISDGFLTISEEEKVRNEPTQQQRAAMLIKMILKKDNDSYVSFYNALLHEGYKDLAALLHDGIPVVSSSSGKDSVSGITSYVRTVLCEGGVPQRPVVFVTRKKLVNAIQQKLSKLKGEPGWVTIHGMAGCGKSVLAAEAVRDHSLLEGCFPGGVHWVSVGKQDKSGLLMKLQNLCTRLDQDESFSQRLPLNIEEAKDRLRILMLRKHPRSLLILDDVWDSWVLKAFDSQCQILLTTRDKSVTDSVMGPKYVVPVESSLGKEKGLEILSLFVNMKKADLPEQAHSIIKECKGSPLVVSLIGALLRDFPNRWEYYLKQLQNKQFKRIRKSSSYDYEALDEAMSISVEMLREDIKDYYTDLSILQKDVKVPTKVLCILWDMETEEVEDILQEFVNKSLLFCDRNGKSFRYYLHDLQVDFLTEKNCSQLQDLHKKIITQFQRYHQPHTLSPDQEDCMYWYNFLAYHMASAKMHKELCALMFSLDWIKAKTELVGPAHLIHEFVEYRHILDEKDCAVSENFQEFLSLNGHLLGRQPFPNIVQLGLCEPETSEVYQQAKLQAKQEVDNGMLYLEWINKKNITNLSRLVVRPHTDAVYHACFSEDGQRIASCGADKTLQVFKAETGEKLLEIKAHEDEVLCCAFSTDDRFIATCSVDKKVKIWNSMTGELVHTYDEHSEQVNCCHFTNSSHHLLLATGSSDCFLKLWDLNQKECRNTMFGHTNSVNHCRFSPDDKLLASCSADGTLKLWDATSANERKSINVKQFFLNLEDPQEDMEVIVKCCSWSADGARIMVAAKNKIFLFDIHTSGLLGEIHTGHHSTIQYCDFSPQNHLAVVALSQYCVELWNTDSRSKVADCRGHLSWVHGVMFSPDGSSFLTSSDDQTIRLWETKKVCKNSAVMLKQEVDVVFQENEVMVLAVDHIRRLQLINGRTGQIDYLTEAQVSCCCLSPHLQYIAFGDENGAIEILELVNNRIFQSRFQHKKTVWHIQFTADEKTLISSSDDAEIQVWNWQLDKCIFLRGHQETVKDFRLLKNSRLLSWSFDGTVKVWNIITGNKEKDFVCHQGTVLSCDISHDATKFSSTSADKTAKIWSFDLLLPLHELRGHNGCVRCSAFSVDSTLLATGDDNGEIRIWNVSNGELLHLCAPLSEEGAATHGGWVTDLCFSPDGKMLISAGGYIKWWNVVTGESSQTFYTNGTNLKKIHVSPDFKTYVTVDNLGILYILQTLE

[8] = IC50 of insulin release inhibition, rat insulinoma INS-1E line, 5 mM glucose, cell-based (AID 1117331); assay type: functional
[9] = viability inhibitors of stage V gametocytes – luminescence, dose response (AID 1117278); assay type: functional, cell-based;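 further: gametocytes exposed to compound for 24 hours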
[10] = viability loss in human Jurkat cells – cell-based, luminescence, cytotoxicity control for P. falciparum gametocyte viability project, dose response (AID 1117277); assay type: functional;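 further: potency reflects loss of cellular ATP meaning fewer viable cells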
Estrogen receptor beta = Estrogen receptor beta (Homo sapiens, UniProt Q92731);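 further: recombinant ER-beta bound to coactivator SRC1 peptide in presence of estradiol agonist; inhibitors block coactivator peptide binding and lower the FRET signal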
Cytochrome P450 2D6 = Cytochrome P450 2D6 (Homo sapiens, UniProt P10635);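 further: CYP2D6 member of a cytochrome P450 panel assay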
Cytochrome P450 1A2 = molecular target: T9, Cytochrome P450 1A2 (Homo sapiens, UniProt P05177);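 further: PubChem cytochrome P450 panel assay, CYP1A2 panel member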
T9 sequence (P05177 whole entry): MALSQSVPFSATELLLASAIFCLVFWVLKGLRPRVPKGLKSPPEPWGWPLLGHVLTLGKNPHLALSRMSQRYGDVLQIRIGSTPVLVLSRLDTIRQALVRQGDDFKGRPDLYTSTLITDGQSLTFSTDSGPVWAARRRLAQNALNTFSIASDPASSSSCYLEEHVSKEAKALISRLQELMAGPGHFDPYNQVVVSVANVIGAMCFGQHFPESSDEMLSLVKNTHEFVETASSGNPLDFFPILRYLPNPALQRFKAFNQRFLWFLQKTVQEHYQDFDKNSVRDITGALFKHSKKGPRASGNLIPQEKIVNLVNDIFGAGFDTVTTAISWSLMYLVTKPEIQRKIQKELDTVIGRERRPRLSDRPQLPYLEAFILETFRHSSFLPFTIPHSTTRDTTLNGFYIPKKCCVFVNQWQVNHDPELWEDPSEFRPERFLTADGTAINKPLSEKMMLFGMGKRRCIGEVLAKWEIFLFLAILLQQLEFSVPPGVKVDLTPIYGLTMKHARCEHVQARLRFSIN

[11] = A cytotoxicity screen of small molecule inhibitors of the PhoP region in Salmonella typhi identified in the primary screen. [Related pubchem assays: 1850, 1864, 1985 ]; assay type: functional

T5 sequence (P11940 whole entry, the tested form may be a part): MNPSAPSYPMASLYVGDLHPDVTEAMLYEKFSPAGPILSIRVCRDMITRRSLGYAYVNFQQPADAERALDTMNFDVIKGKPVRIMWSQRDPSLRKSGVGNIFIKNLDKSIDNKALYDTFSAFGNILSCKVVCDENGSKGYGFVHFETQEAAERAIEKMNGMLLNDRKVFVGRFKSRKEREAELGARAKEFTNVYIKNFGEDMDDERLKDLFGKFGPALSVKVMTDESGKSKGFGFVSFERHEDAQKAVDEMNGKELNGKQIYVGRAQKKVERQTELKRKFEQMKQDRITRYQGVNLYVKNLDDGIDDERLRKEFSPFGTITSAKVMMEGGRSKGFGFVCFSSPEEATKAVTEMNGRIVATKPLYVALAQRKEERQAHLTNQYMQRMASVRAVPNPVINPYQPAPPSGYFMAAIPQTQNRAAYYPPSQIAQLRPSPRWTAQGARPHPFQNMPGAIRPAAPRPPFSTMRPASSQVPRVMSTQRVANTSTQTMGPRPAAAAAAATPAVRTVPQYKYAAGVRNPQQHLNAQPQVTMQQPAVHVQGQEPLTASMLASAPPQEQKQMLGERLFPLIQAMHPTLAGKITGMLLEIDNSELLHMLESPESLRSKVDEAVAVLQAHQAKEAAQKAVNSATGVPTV
Nonstructural protein 1, sequence (Q194T2 whole entry, the tested form may be a part): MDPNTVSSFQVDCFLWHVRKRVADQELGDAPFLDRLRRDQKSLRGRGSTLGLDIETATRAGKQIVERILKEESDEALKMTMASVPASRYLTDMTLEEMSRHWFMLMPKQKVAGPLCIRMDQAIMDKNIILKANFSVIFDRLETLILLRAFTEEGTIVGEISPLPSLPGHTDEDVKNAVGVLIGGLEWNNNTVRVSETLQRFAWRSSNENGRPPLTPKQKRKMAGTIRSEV
Cytochrome P450 2D6, sequence (P10635 whole entry): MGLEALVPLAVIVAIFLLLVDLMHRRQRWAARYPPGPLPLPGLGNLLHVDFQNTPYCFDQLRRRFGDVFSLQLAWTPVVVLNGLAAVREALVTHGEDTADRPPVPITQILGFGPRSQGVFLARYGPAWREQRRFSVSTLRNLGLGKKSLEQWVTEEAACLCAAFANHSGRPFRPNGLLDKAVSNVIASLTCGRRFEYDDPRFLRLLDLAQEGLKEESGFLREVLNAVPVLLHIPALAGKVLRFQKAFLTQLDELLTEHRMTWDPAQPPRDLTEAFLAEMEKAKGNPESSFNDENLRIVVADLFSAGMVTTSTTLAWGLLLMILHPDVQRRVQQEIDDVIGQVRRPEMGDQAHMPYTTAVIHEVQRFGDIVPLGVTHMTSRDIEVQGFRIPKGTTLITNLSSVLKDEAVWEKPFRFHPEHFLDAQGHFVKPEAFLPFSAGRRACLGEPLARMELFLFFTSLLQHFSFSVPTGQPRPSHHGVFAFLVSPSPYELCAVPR
Estrogen receptor beta, sequence (Q92731 whole entry): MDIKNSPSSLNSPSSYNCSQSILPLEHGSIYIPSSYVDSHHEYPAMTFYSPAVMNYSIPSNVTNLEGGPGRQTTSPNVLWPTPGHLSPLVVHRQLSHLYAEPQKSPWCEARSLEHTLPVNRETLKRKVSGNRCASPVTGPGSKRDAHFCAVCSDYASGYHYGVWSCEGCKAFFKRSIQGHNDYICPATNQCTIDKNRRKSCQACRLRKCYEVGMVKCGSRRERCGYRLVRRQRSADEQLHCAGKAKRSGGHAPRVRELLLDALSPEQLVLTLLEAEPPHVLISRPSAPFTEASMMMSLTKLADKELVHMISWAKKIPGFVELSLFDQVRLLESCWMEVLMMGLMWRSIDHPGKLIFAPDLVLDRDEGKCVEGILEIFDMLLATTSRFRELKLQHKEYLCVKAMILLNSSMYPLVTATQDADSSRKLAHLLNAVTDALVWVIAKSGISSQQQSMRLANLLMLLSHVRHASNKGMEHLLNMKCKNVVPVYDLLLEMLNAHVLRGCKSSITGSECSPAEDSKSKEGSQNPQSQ
Caspase-8, sequence (Q14790 217-374 limits assumed): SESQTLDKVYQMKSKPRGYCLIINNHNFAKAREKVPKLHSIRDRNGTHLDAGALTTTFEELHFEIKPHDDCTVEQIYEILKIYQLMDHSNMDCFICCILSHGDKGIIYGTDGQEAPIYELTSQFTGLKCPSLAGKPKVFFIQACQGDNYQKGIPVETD
Caspase-8, sequence (Q14790 385-479 limits assumed): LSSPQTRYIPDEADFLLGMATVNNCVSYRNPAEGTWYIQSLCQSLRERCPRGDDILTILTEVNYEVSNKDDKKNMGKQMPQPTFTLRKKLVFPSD

In the case of COc1ccccc1N1C(=O)C(Cl)=C(Nc2ccccc2O)C1=O, the IC50 [1] is reported as 90.9 µM (active), the EC50 [2] is reported as 34.7 µM (active) and the EC50 [3] is reported as 8.19 µM (inconclusive).

With Cc1nn(-c2ccccc2Cl)c(Cl)c1/C=N/Nc1cccc(C(=O)O)c1 the AC50 [4] was 5.5 µM (active) and the IC50 [1] was 137 µM (active).

For Oc1cc(NCCc2cccnc2)cc2cccnc12, the AC50 (Caspase-8) was 30.1 µM (active), the IC50 (Nonstructural protein 1) was 6.64 µM (active) and the IC50 [5] was 42.3 µM (inactive). The AC50 (Caspase-9) was > 70 µM (inactive), the IC50 [6] was > 66 µM (inactive) and the AC50 (Caspase-6) was 2.89 µM (active). The IC50 [7] was 18.4 µM (active).

For CCC1=C(C)CN(C(=O)NCCc2ccc(S(=O)(=O)NC(=O)N[C@H]3CC[C@H](C)CC3)cc2)C1=O [GLIMEPIRIDE], the IC50 [8] was 0.00406 µM (active).

For CC1CCN(C(=O)CSc2ccc(-c3ccc(F)cc3)nn2)CC1, the IC50 [9] was > 109 µM (inactive) and the IC50 [10] was > 83.3 µM (inactive).

In the case of COC(=O)C(O)(c1ccc(N(C)C(=O)OC(C)C)cc1)C(F)(F)F (centres undefined), the IC50 (Estrogen receptor beta) is reported as > 50 µM (not active).

With CCN(CC)CCOc1ccc(Cc2ccccc2)cc1 the AC50 (Cytochrome P450 2D6) was 25.1 µM (inconclusive), the IC50 [8] was > 33.3 µM (inactive) and the AC50 (Cytochrome P450 1A2) was 12.6 µM (inconclusive).

For Cn1c(SCC(=O)N2CCCCC2)nnc1-c1ccc(S(=O)(=O)N2CCOCC2)cc1, the IC50 [9] was > 109 µM (inactive) and the IC50 [10] was > 83.3 µM (inactive).

For CCOC(=O)CSc1nnc2c(n1)C1(C)CCC2C1(C)C (centres undefined), the IC50 [9] was > 109 µM (inactive), the IC50 [10] was > 83.2 µM (inactive) and the EC50 [11] was > 50 µM (active).
